Source: patent publication US9023865B2, “Compounds that are ERK inhibitors” (Merck Sharp & Dohme Corp., priority 2011, dated 2015)
Where a name gives a salt, the structure may show the parent alone.

The compounds below were run against Active Human ERK2 (hERK2) (Homo sapiens (Human), UniProt P28482) (assay: Active Human ERK2 (hERK2) Activity Assay (IMAP-FP)). Conditions: phosphorylated active hERK2, 30 μM ATP; average; read-out: ERK 2 Human average IC50.
Sequence of Active Human ERK2 (hERK2) (P28482 whole entry): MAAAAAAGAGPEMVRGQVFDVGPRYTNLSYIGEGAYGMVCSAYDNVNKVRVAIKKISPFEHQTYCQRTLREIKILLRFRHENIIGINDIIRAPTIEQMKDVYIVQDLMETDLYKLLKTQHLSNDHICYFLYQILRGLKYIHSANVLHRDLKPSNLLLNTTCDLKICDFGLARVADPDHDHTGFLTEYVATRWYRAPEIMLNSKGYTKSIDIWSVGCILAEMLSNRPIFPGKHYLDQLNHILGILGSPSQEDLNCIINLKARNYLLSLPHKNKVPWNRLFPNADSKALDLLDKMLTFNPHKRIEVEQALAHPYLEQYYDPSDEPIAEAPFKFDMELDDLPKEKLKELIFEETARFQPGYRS
Assay type: biochemical
Experimental: Assays Active Human ERK2 (hERK2) Activity Assay:
Activated ERK2 activity was determined in an IMAP-FP assay (Molecular Devices). […] The final reaction in each well of 25 μL consists of 0.5 nM hERK2, 900 nM unlabeled peptide, 80 nM labeled-peptide, and 30 μM ATP. Phosphorylation reactions were allowed to proceed for 60 minutes and were immediately quenched by the addition of […] IMAP detection beads (1:1000 dilutions) in IMAP binding buffer (Molecular Devices) with 24 mM NaCl. Plates were read on EnVision reader after 60 minutes binding equilibration using Fluorescence Polarization protocol (Perkin Elmer).
In the case of `Cc1cc(-c2n[nH]c3c(Br)c(NC(=O)N[C@H](C)c4ccccc4)ncc23)ccn1` [Example 79, 1-[7-bromo-3-(2-methylpyridin-4-yl)-1H-pyrazolo[4,3-c]pyridin-6-yl]-3-[(1R)-1-phenylethyl]urea], the IC50 is reported as 34.5 nM.
With `C[C@@H](NC(=O)Nc1cc2[nH]nc(-c3ccnc(F)c3)c2cn1)c1ccc(F)c(Cl)c1` [Example 81, 1-[(1R)-1-(3-chloro-4-fluorophenyl)ethyl]-3-[3-(2-fluoropyridin-4-yl)-1H-pyrazolo[4,3-c]pyridin-6-yl]urea] the IC50 was 1.91 nM.
`C[C@@H](NC(=O)Nc1cc2[nH]nc(C3CC3)c2cn1)c1ccc(F)c(Cl)c1` [Example 82, 1-[(1R)-1-(3-chloro-4-fluorophenyl)ethyl]-3-(3-cyclopropyl-1H-pyrazolo[4,3-c]pyridin-6-yl)urea] showed an IC50 of 10.8 nM.
`C[C@@H](NC(=O)Nc1cc2[nH]nc(-c3ccc(C#N)cc3)c2cn1)c1ccc(F)cc1` [Example 83, 1-[3-(4-cyanophenyl)-1H-pyrazolo[4,3-c]pyridin-6-yl]-3-[(1R)-1-(4-fluorophenyl)ethyl]urea] gave an IC50 of 3.28 nM.
`C[C@@H](NC(=O)Nc1cc2[nH]nc(-c3ccc(C#N)cc3)c2cn1)c1cccc(Cl)c1` [Example 84, 1-[(1R)-1-(3-chlorophenyl)ethyl]-3-[3-(4-cyanophenyl)-1H-pyrazolo[4,3-c]pyridin-6-yl]urea] gave an IC50 of 6.11 nM.
`Cc1cc(-c2n[nH]c3cc(NC(=O)NC4(c5ccc(Cl)cc5)CC4)ncc23)ccn1` [Example 85, 1-[1-(4-chlorophenyl)cyclopropyl]-3-[3-(2-methylpyridin-4-yl)-1H-pyrazolo[4,3-c]pyridin-6-yl]urea] showed an IC50 of 29.8 nM.
`Cc1cc(-c2n[nH]c3c(Br)c(NC(=O)N[C@H](C)c4ccc(Cl)cc4)ncc23)ccn1` [Example 86, 1-[7-bromo-3-(2-methylpyridin-4-yl)-1H-pyrazolo[4,3-c]pyridin-6-yl]-3-[(1R)-1-(4-chlorophenyl)ethyl]urea] was tested, and the IC50 was 455 nM.
`Cc1nc2ccc(-c3n[nH]c4cc(NC(=O)N[C@H](C)c5ccccc5)ncc34)cc2s1` [Example 87, 1-[3-(2-methyl-1,3-benzothiazol-6-yl)-1H-pyrazolo[4,3-c]pyridin-6-yl]-3-[(1R)-1-phenylethyl]urea] gave an IC50 of 0.748 nM.
`C[C@@H](NC(=O)Nc1cc2[nH]nc(-c3ccc4c(c3)OCCO4)c2cn1)c1ccccc1` [Example 88, 1-[3-(2,3-dihydro-1,4-benzodioxin-6-yl)-1H-pyrazolo[4,3-c]pyridin-6-yl]-3-[(1R)-1-phenylethyl]urea] gave an IC50 of 1.16 nM.
`C[C@@H](NC(=O)Nc1cc2[nH]nc(-c3ccc(S(C)(=O)=O)cc3)c2cn1)c1ccccc1` [Example 89, 1-{3-[4-(methylsulfonyl)phenyl]-1H-pyrazolo[4,3-c]pyridin-6-yl}-3-[(1R)-1-phenylethyl]urea] was tested, and the IC50 was 1.33 nM.
`C[C@@H](NC(=O)Nc1cc2[nH]nc(-c3ccn(C)n3)c2cn1)c1ccccc1` [Example 90, 1-[3-(1-methyl-1H-pyrazol-3-yl)-1H-pyrazolo[4,3-c]pyridin-6-yl]-3-[(1R)-1-phenylethyl]urea] showed an IC50 of 2.19 nM.
Compound `Cc1cc(-c2n[nH]c3cc(NC(=O)N[C@H](C)c4ccccc4)ncc23)cnn1` [Example 91, 1-[3-(6-methylpyridazin-4-yl)-1H-pyrazolo[4,3-c]pyridin-6-yl]-3-[(1R)-1-phenylethyl]urea] has an IC50 of 0.878 nM.
`Cc1cc(-c2n[nH]c3c(Cl)c(NC(=O)NCc4ccccc4)ncc23)ccn1` [Example 92, 1-benzyl-3-[7-chloro-3-(2-methylpyridin-4-yl)-1H-pyrazolo[4,3-c]pyridin-6-yl]urea] gave an IC50 of 6.25 nM.
With `C[C@@H](NC(=O)Nc1cc2[nH]nc(-c3cc[n+]([O-])cc3)c2cn1)c1ccccc1` [Example 93, 1-[3-(1-oxidopyridin-4-yl)-1H-pyrazolo[4,3-c]pyridin-6-yl]-3-[(1R)-1-phenylethyl]urea] the IC50 was 0.383 nM.
Work on `Cc1cc(-c2n[nH]c3cc(NC(=S)NCc4ccccc4)ncc23)ccn1` [Example 94, 6-[(benzylcarbamothioyl)amino]-3-(2-methylpyridin-4-yl)-1H-pyrazolo[4,3-c]pyridin-5-ium trifluoroacetate] yielded an IC50 of 11.9 nM.
For `Cc1cc(-c2n[nH]c3c(F)c(NC(=O)N[C@H](C)c4ccccc4)ncc23)ccn1` [Example 95, 1-[7-fluoro-3-(2-methylpyridin-4-yl)-1H-pyrazolo[4,3-c]pyridin-6-yl]-3-[(1R)-1-phenylethyl]urea], the IC50 was 0.235 nM.
Compound `COCCNC(=O)c1n[nH]c2cc(NC(=O)N[C@H](C)c3ccccc3)ncc12` [Example 116, N-(2-methoxyethyl)-6-({[(1R)-1-phenylethyl]carbamoyl}amino)-1H-pyrazolo[4,3-c]pyridine-3-carboxamide] has an IC50 of 10.7 nM.
Compound `C[C@@H](NC(=O)Nc1cc2[nH]nc(C(=O)NCc3nc4ccncc4[nH]3)c2cn1)c1ccccc1` [Example 117] has an IC50 of 5.47 nM.
In the case of `CSC1CN(C(=O)c2n[nH]c3cc(NC(=O)N[C@H](C)c4ccccc4)ncc23)C1` [Example 118], the IC50 is reported as 501 nM.
`C[C@@H](NC(=O)Nc1cc2[nH]nc(C(=O)NCC3(N(C)C)CCC3)c2cn1)c1ccccc1` [Example 119] was tested, and the IC50 was 211 nM.
`C[C@@H](NC(=O)Nc1cc2[nH]nc(C(=O)N3CC(=O)N(C)C3)c2cn1)c1ccccc1` [Example 120] was tested, and the IC50 was 60.4 nM.
Work on `C[C@@H](NC(=O)Nc1cc2[nH]nc(C(=O)NCC3CCOC3)c2cn1)c1ccccc1` (stereo partly drawn) [Example 121] yielded an IC50 of 3.83 nM.
Work on `C[C@@H](NC(=O)Nc1cc2[nH]nc(C(=O)NCc3cccnn3)c2cn1)c1ccccc1` [Example 122] yielded an IC50 of 2.55 nM.
With `C[C@@H](NC(=O)Nc1cc2[nH]nc(C(=O)NCC(O)C(F)F)c2cn1)c1ccccc1` (stereo partly drawn) [Example 123] the IC50 was 4.49 nM.
With `C[C@@H](NC(=O)Nc1cc2[nH]nc(C(=O)NCC3(O)CC3)c2cn1)c1ccccc1` [Example 124] the IC50 was 6.38 nM.
Work on `C[C@@H](NC(=O)Nc1cc2[nH]nc(C(=O)NCC(F)(F)CN3CCOCC3)c2cn1)c1ccccc1` [Example 125] yielded an IC50 of 6.53 nM.
Work on `C[C@@H](NC(=O)Nc1cc2[nH]nc(C(=O)NCCC3(O)CCCC3)c2cn1)c1ccccc1` [Example 126] yielded an IC50 of 8.33 nM.
`C[C@@H](NC(=O)Nc1cc2[nH]nc(C(=O)NCC34CC5CC(C3)C(O)C(C5)C4)c2cn1)c1ccccc1` (stereo partly drawn) [Example 127] was tested, and the IC50 was 14.7 nM.
`C[C@@H](NC(=O)Nc1cc2[nH]nc(C(=O)NCC(F)(F)CN3CCCC3)c2cn1)c1ccccc1` [Example 128] was tested, and the IC50 was 19 nM.
With `C[C@@H](NC(=O)Nc1cc2[nH]nc(C(=O)NCC3CCN(C4CC4)C3)c2cn1)c1ccccc1` (stereo partly drawn) [Example 129] the IC50 was 13.6 nM.
`CO[C@H]1CN(C(=O)c2n[nH]c3cc(NC(=O)N[C@H](C)c4ccccc4)ncc23)C[C@@H]1O` [Example 130] showed an IC50 of 1970 nM.
`COC(C)CNC(=O)c1n[nH]c2cc(NC(=O)N[C@H](C)c3ccccc3)ncc12` (stereo partly drawn) [Example 131] showed an IC50 of 13.4 nM.
`C[C@@H](NC(=O)Nc1cc2[nH]nc(C(=O)NCC3CCCC(O)C3)c2cn1)c1ccccc1` (stereo partly drawn) [Example 132] was tested, and the IC50 was 3.2 nM.
Compound `COCC(O)CNC(=O)c1n[nH]c2cc(NC(=O)N[C@H](C)c3ccccc3)ncc12` (stereo partly drawn) [Example 133] has an IC50 of 11 nM.
`C[C@@H](NC(=O)Nc1cc2[nH]nc(C(=O)N[C@@H]3CCN(O)C3=O)c2cn1)c1ccccc1` [Example 134] showed an IC50 of 103 nM.
Work on `CC(C)CC(O)CNC(=O)c1n[nH]c2cc(NC(=O)N[C@H](C)c3ccccc3)ncc12` (stereo partly drawn) [Example 135] yielded an IC50 of 14.6 nM.

Same assay, conditions: read-out: AERK2 IC50 (Active human ERK2 Activity Assay)
`Cc1nc2ccc(-c3n[nH]c4cc(NC(=O)N[C@H](C)c5ccccc5)ncc34)cc2s1` [Example 87, 1-[3-(2-methyl-1,3-benzothiazol-6-yl)-1H-pyrazolo[4,3-c]pyridin-6-yl]-3-[(1R)-1-phenylethyl]urea] showed an IC50 of 0.2 to 1.7 nM.
Compound `C[C@@H](NC(=O)Nc1cc2[nH]nc(-c3ccc4c(c3)OCCO4)c2cn1)c1ccccc1` [Example 88, 1-[3-(2,3-dihydro-1,4-benzodioxin-6-yl)-1H-pyrazolo[4,3-c]pyridin-6-yl]-3-[(1R)-1-phenylethyl]urea] has an IC50 of 0.2 to 1.7 nM.
`C[C@@H](NC(=O)Nc1cc2[nH]nc(-c3ccc(S(C)(=O)=O)cc3)c2cn1)c1ccccc1` [Example 89, 1-{3-[4-(methylsulfonyl)phenyl]-1H-pyrazolo[4,3-c]pyridin-6-yl}-3-[(1R)-1-phenylethyl]urea] was tested, and the IC50 was 0.2 to 1.7 nM.
`Cc1cc(-c2n[nH]c3cc(NC(=O)N[C@H](C)c4ccccc4)ncc23)cnn1` [Example 91, 1-[3-(6-methylpyridazin-4-yl)-1H-pyrazolo[4,3-c]pyridin-6-yl]-3-[(1R)-1-phenylethyl]urea] showed an IC50 of 0.2 to 1.7 nM.
For `C[C@@H](NC(=O)Nc1cc2[nH]nc(-c3cc[n+]([O-])cc3)c2cn1)c1ccccc1` [Example 93, 1-[3-(1-oxidopyridin-4-yl)-1H-pyrazolo[4,3-c]pyridin-6-yl]-3-[(1R)-1-phenylethyl]urea], the IC50 was 0.2 to 1.7 nM.
In the case of `Cc1cc(-c2n[nH]c3c(F)c(NC(=O)N[C@H](C)c4ccccc4)ncc23)ccn1` [Example 95, 1-[7-fluoro-3-(2-methylpyridin-4-yl)-1H-pyrazolo[4,3-c]pyridin-6-yl]-3-[(1R)-1-phenylethyl]urea], the IC50 is reported as 0.2 to 1.7 nM.
